In patent publication US7678808B2, “5 HT receptor mediated neurogenesis” (BrainCells, Inc., priority 2006, dated 2010):
Entries after “also recorded” stand apart in the source; their conditions may differ.

How the values were obtained:
[1] = Rat body weight during chronic dosing; conditions: buspirone 0.5 and 5.0 mg/kg i.p., 1x per day for 28 days
[2] = test system: human neural stem cells (hNSCs); experiment: Astrocyte differentiation of hNSCs (GFAP staining); type: cell-based
Protocol: Experiments were carried out as described in Example 1, except the positive control for astrocyte differentiation contained mitogen-free test media with a positive control, and cells were stained with GFAP antibody.
Experiments were carried out as described in Example 2, except the positive control for astrocyte differentiation contained mitogen-free test media with a different positive control.
(§1) Human neural stem cells (hNSCs) were isolated and grown in monolayer culture, plated, treated with varying concentrations of buspirone in the presence or absence of the melatonin agonist melatonin, and stained with TUJ-1 antibody for the detection of neuronal differentiation or GFAP antibody for the detection of astrocyte differentiation, as described above. Mitogen-free test media with a positive control for neuronal differentiation was used along with basal media without growth factors as a negative control.

[3] = test system: granule cell layer of the dentate gyrus; experiment: In vivo neurogenesis (BrdU positive cell counts); set-up: species or system rat; conditions: 0.5 mg/kg buspirone, 3.0 mg/kg melatonin or both, i.p., 1x per day for 28 days
Protocol: BrdU was administered once daily between days 9 and 14 (100 mg/kg/day, i.p., n=12 per dose group). […] Data are presented as percent change in BrdU positive cells per cubic mm dentate gyrus.

[4] = test system: human neural stem cells (hNSCs); experiment: Neuronal differentiation of human neural stem cells (TUJ-1 staining); type: cell-based; conditions: agent alone; hNSC; data as % of neuronal positive control, basal media subtracted
Description: Mitogen-free test media with a positive control was used for neuronal differentiation, and basal media without growth factors served as a negative control.
Mitogen-free test media with a positive control for neuronal differentiation was used, and basal media without growth factors served as a negative control.
as §1
(§2) Human neural stem cells (hNSCs) were isolated and grown in monolayer culture, plated, treated with varying concentrations of a 5-HT3 antagonist and stained with TUJ-1 antibody, as described above. Mitogen-free test media with a positive control for neuronal differentiation was used along with basal media without growth factors as a negative control.
as §2, with “5-HT4 agonist” for “5-HT3 antagonist”
The presence of synergy was determined by use of a combination index (CI). […] The CI is a quantitative measure of the nature of drug interactions, comparing the EC50's of two compounds, when each is assayed alone, to the EC50 of each compound when assayed in combination. The combination index (CI) is equal to the following formula: […]
where C1 and C2 are the concentrations of a first and a second compound, respectively, resulting in 50% activity in neuronal differentiation when assayed in combination; and IC1 and IC2 are the concentrations of each compound resulting in 50% activity when assayed independently.

[5] = test system: Male F344 rats; experiment: Novelty suppressed feeding (NSF) depression assay; type: in vivo, rat; conditions: 1x per day for 21 days
Protocol: Twenty-four hours prior to behavioral testing, all food is removed from the home cage. At the time of testing a single pellet is placed in the center of a novel arena. Animals are placed in the corner of the arena and latency to eat the pellet is recorded. […] Animals receive compound daily for 21 days and testing is performed on day 21. A decreased latency to eat the food pellet is indicative of both neurogenesis and antidepressant activity.
Twenty-four hours prior to behavioral testing, all food is removed from the home cage. At the time of testing a single pellet is placed in the center of a novel arena. Animals are placed in the corner of the arena and the latency (in time) to eat the pellet is recorded. […] Animals receive compound daily for 21 days and testing is performed on day 21. A decreased latency to eat the food pellet is indicative of both neurogenesis and antidepressant activity.

[6] = test system: Male F344 rats; experiment: Novel Object Recognition (NOR) cognition assay; type: in vivo, rat; conditions: buspirone 0.5 and 5.0 mg/kg i.p., 1x per day for 28 days
Description: The apparatus consisted of an open field (45×45×50 cm high) made of polycarbonate. Triplicate copies were used of the objects to be discriminated. Care was taken to ensure that the pair of objects tested were made from the same material so that they could not be distinguished readily by olfactory cues although they had very different appearances.
Each test session consisted of two phases. In the initial familiarization phase, two identical objects (A1 and A2) were placed in the far corners of the box arena. A rat was then placed in the middle of the arena and allowed 15 minutes to explore both objects. Exploration of an object was defined as directing the nose to the object at a distance of less than 2 cm and/or touching it with the nose. After a delay of 48-hours the rat was re-introduced to the arena (“test phase”). The box now contained a third identical copy of the familiar object (A3) and a new object (B). These were placed in the same locations as the sample stimuli, whereby the position (left or right) of the novel object in the test phase was balanced between rats. For half the rats, object A was the sample and object B was the novel alternative. The test phase was 15 minutes in duration, with the first 30 seconds of object interaction used to determine preference scores. Any animal with less than 15 seconds of object exploration were excluded from analysis.

For `O=C1CC2(CCCC2)CC(=O)N1CCCCN1CCN(c2ncccn2)CC1` [buspirone], the mean body weight [1] was “dose-dependent decrease in mean body weight”, the EC50 ([2]; Homo sapiens, Neural stem cell, agent alone, hNSC) was 5.7 µM and the maximum astrocyte differentiation ([2]; percent of positive control, agent alone or in combination) was 60%. The “BrdU positive cells per cubic mm dentate gyrus (percent change)” value [3] was “did not significantly change the number of BrdU positive cells”, the EC50 [4] was 9.4 µM and the “latency to eat the food pellet (percent baseline)” value ([5]; 0.5 mg/kg buspirone, 3.0 mg/kg melatonin or both, i.p.) was “did not significantly reduce the latency to eat the food pellet”. For the same molecule, the “latency to eat the food pellet” value ([5]; buspirone 0.5 and 5.0 mg/kg i.p.) was “did not significantly reduce the latency to eat the food pellet; also recorded: did not demonstrate a significant effect on novelty suppressed feeding” and the “preference for the novel object (visits, time spent)” value [6] was “did not increase preference for the novel object; also recorded: did not demonstrate a significant effect on cognition”.
